Patent US10921312B2 (priority 2014, dated 2021)
Entries after “also recorded” stand apart in the source; their conditions may differ.

Tests used:
[1] = system: iCell® neurons (human induced pluripotent stem cell-derived neurons); format: cell-based
Neuro2A cells = format: cell-based

GT1b
increase of sensitivity to neurotoxin polypeptide [1]: ~7 fold
increase in sensitivity to neurotoxin (Neuro2A cells): did not exhibit a comparable increase in sensitivity; also recorded: no increase in sensitivity
